The structures appear in SMILES notation. Activity calls are given as the source filed them. The rule behind the calls is not given here.

In one assay the test system is Salmonella typhimurium. The assay is described as follows: Antibiofilm activity in Salmonella Typhimurium ATCC 14028 assessed as inhibition of biofilm formation at 25 degC after 24 hrs. Type of assay: functional, organism-based, Salmonella enterica subsp. enterica serovar Typhimurium. The conditions noted are these: Salmonella enterica, ATCC 14028, 24 h.
For `CCCCn1c(-c2ccccc2)cnc1N`, the 50% inhibitory concentration (IC50) (as a rule, the concentration that gives 50% inhibition) was determined as 51.9 µM.

Regarding `Nc1nc(-c2ccc(Cl)cc2)c(-c2ccc(C(F)(F)F)cc2)[nH]1`, the IC50 was 10.8 µM.

As for `CCCCCCCCCn1c(-c2ccccc2)cnc1N`, the half-inhibitory concentration (IC50) came out at 6 µM.

Turning to `Nc1ncc(-c2ccccc2)n1C1CCCCCCCCCCC1`, the IC50 turned out to be 14.6 µM.

For `CCCCCCCC[n+]1c(-c2cccc3ccccc23)cn2cccnc21.[O-][Cl+3]([O-])([O-])[O-]`, the 50% inhibitory concentration (IC50) was found to be 6 µM.

`Nc1nc(-c2ccc(F)cc2)c(-c2ccc(F)cc2)[nH]1`: the IC50 amounted to 18.2 µM.

Take `Nc1ncc(-c2ccc(Cl)cc2)n1C1CCCCC1`: the half-maximal inhibitory concentration (IC50) was found to be 33.2 µM.

On to `CCn1c(-c2ccc(-c3ccccc3)cc2)cnc1N`, for which the IC50 is 14 µM.

Take `CCCCCCCCn1c(-c2ccc(F)cc2)cnc1N`: the half-inhibitory concentration (IC50) amounted to 10.8 µM.

Regarding `CCCCCCCCn1c(-c2ccc(Cl)cc2)cnc1N`, the IC50 came to 5.9 µM.

For the molecule `Nc1ncc(-c2ccc(-c3ccccc3)cc2)n1C1CCCC1`, the half-inhibitory concentration (IC50) amounted to 7.5 µM.

Turning to `Nc1ncc(-c2ccc(Cl)cc2)n1C1CCCCCC1`, the half-maximal inhibitory concentration (IC50) amounted to 15.7 µM.

`CCCCCCCn1c(-c2ccccc2)cnc1N`: the IC50 was determined as 12.2 µM.

With `Nc1nc(-c2ccccc2)c(-c2ccccc2)n1C1CCCCC1`, the half-inhibitory concentration (IC50) worked out at 23.9 µM.

Another assay deals with Salmonella typhimurium. The assay is described as follows: Antimicrobial activity against Salmonella Typhimurium ATCC 14028 assessed as inhibition of planktonic growth at 40 uM at 25 degC after 24 hrs. Type of assay: functional, organism-based. The conditions noted are these: Salmonella enterica subsp. enterica serovar Typhimurium.
Regarding `Nc1nc(-c2ccc(Cl)cc2)c(-c2ccc(C(F)(F)F)cc2)[nH]1`, the inhibition result is “Active”.

As for `Nc1ncc(-c2ccccc2)n1C1CCCCCCCCCCC1`, the inhibition entry is “inactive”.

Regarding `Nc1nc(-c2ccc(F)cc2)c(-c2ccc(F)cc2)[nH]1`, the inhibition result was “Active”.

In the case of `CCn1c(-c2ccc(-c3ccccc3)cc2)cnc1N`, the inhibition entry was “Active”.

As to `Nc1ncc(-c2ccc(-c3ccccc3)cc2)n1C1CCCC1`, the inhibition result was “Active”.

`Nc1nc(-c2ccccc2)c(-c2ccccc2)n1C1CCCCC1`: the inhibition entry was “inactive”.

In the next assay the test system is Salmonella typhimurium. Put plainly: Antimicrobial activity against Salmonella Typhimurium ATCC 14028 assessed as inhibition of planktonic growth at 20 uM at 25 degC after 24 hrs. Format: functional, organism-based. The conditions noted are these: Salmonella enterica subsp. enterica serovar Typhimurium.
On to `Nc1nc(-c2ccc(Cl)cc2)c(-c2ccc(C(F)(F)F)cc2)[nH]1`, for which the inhibition entry is “Active”.

As for `CCCCCCCCCn1c(-c2ccccc2)cnc1N`, the inhibition entry is “Active”.

Turning to `Nc1nc(-c2ccc(F)cc2)c(-c2ccc(F)cc2)[nH]1`, the inhibition entry was “Active”.

For `CCn1c(-c2ccc(-c3ccccc3)cc2)cnc1N`, the inhibition entry was “inactive”.

On to `CCCCCCCCn1c(-c2ccc(F)cc2)cnc1N`, for which the inhibition entry was “Active”.

As to `CCCCCCCCn1c(-c2ccc(Cl)cc2)cnc1N`, the inhibition entry was “Active”.

Consider `Nc1ncc(-c2ccc(-c3ccccc3)cc2)n1C1CCCC1`, for which the inhibition entry was “Active”.

Turning to `Nc1nc(-c2ccccc2)c(-c2ccccc2)n1C1CCCCC1`, the inhibition result is “inactive”.

The subject of another assay is Salmonella typhimurium. Put plainly: Antimicrobial activity against Salmonella Typhimurium ATCC 14028 assessed as inhibition of planktonic growth at 10 uM at 25 degC after 24 hrs. Type of assay: functional, organism-based. As to conditions: Salmonella enterica subsp. enterica serovar Typhimurium.
With `Nc1nc(-c2ccc(Cl)cc2)c(-c2ccc(C(F)(F)F)cc2)[nH]1`, the inhibition result was “Active”.

As to `CCCCCCCCCn1c(-c2ccccc2)cnc1N`, the inhibition entry was “Active”.

Take `Nc1ncc(-c2ccccc2)n1C1CCCCCCCCCCC1`: the inhibition result is “inactive”.

On to `CCCCCCCC[n+]1c(-c2cccc3ccccc23)cn2cccnc21.[O-][Cl+3]([O-])([O-])[O-]`, for which the inhibition result was “Active”.

`Nc1nc(-c2ccc(F)cc2)c(-c2ccc(F)cc2)[nH]1`: the inhibition result was “inactive”.

Take `CCn1c(-c2ccc(-c3ccccc3)cc2)cnc1N`: the inhibition result was “inactive”.

On to `CCCCCCCCn1c(-c2ccc(F)cc2)cnc1N`, for which the inhibition entry is “inactive”.

For `CCCCCCCCn1c(-c2ccc(Cl)cc2)cnc1N`, the inhibition result is “Active”.

Regarding `Nc1ncc(-c2ccc(-c3ccccc3)cc2)n1C1CCCC1`, the inhibition entry was “inactive”.

Turning to `Nc1nc(-c2ccccc2)c(-c2ccccc2)n1C1CCCCC1`, the inhibition entry is “inactive”.

Another assay relates to Salmonella typhimurium. The assay is described as follows: Antimicrobial activity against Salmonella Typhimurium ATCC 14028 assessed as inhibition of planktonic growth at 4 uM at 25 degC after 24 hrs. The conditions noted are these: Salmonella enterica subsp. enterica serovar Typhimurium. Type of assay: functional, organism-based.
`Nc1nc(-c2ccc(Cl)cc2)c(-c2ccc(C(F)(F)F)cc2)[nH]1`: the inhibition result is “inactive”.

Turning to `CCCCCCCCCn1c(-c2ccccc2)cnc1N`, the inhibition entry was “inactive”.

On to `CCCCCCCC[n+]1c(-c2cccc3ccccc23)cn2cccnc21.[O-][Cl+3]([O-])([O-])[O-]`, for which the inhibition result is “inactive”.

For `Nc1nc(-c2ccc(F)cc2)c(-c2ccc(F)cc2)[nH]1`, the inhibition entry was “inactive”.

For `CCn1c(-c2ccc(-c3ccccc3)cc2)cnc1N`, the inhibition result was “inactive”.

For the molecule `CCCCCCCCn1c(-c2ccc(Cl)cc2)cnc1N`, the inhibition entry was “Active”.

Consider `Nc1ncc(-c2ccc(-c3ccccc3)cc2)n1C1CCCC1`, for which the inhibition result was “inactive”.

A further assay has as its system Pseudomonas aeruginosa. Put plainly: Antibiofilm activity in Pseudomonas aeruginosa assessed as inhibition of biofilm formation at 25 degC after 24 hrs.
Conditions: not given
Format: functional, organism-based.
For the molecule `CCCCn1c(-c2ccccc2)cnc1N`, the IC50 came out at 2.1 µM.

Turning to `CCCCCCCCCn1c(-c2ccccc2)cnc1N`, the IC50 worked out at 8.4 µM.

Consider `Nc1ncc(-c2ccccc2)n1C1CCCCCCCCCCC1`, for which the IC50 is over 800 µM.

On to `CCCCCCCC[n+]1c(-c2cccc3ccccc23)cn2cccnc21.[O-][Cl+3]([O-])([O-])[O-]`, for which the half-inhibitory concentration (IC50) was 6.8 µM.

In the case of `Nc1ncc(-c2ccc(Cl)cc2)n1C1CCCCC1`, the half-maximal inhibitory concentration (IC50) is 11.2 µM.

As for `CCn1c(-c2ccc(-c3ccccc3)cc2)cnc1N`, the half-maximal inhibitory concentration (IC50) is 95.1 µM.

As to `CCCCCCCCn1c(-c2ccc(F)cc2)cnc1N`, the IC50 came to 4.9 µM.

As to `CCCCCCCCn1c(-c2ccc(Cl)cc2)cnc1N`, the half-inhibitory concentration (IC50) worked out at 4 µM.

For `Nc1ncc(-c2ccc(-c3ccccc3)cc2)n1C1CCCC1`, the IC50 came to 353 µM.

For `Nc1ncc(-c2ccc(Cl)cc2)n1C1CCCCCC1`, the IC50 was found to be 4 µM.

Take `CCCCCCCn1c(-c2ccccc2)cnc1N`: the concentration for half-maximal inhibition (IC50) came to 6.8 µM.

Turning to `Nc1nc(-c2ccccc2)c(-c2ccccc2)n1C1CCCCC1`, the half-inhibitory concentration (IC50) amounted to 5 µM.

In a further assay the test system is Pseudomonas aeruginosa. The assay is described as follows: Antimicrobial activity against Pseudomonas aeruginosa assessed as inhibition of planktonic growth at 40 uM at 25 degC after 24 hrs.
Conditions: not given
Format: functional, organism-based.
`CCCCCCCC[n+]1c(-c2cccc3ccccc23)cn2cccnc21.[O-][Cl+3]([O-])([O-])[O-]`: the inhibition entry is “Active”.

`Nc1ncc(-c2ccc(Cl)cc2)n1C1CCCCC1`: the inhibition entry is “inactive”.

Regarding `CCCCCCCn1c(-c2ccccc2)cnc1N`, the inhibition entry was “inactive”.

As for `Nc1nc(-c2ccccc2)c(-c2ccccc2)n1C1CCCCC1`, the inhibition entry is “inactive”.

The subject of the next assay is Pseudomonas aeruginosa. Put plainly: Antimicrobial activity against Pseudomonas aeruginosa assessed as inhibition of planktonic growth at 10 uM at 25 degC after 24 hrs. Format: functional, organism-based.
Conditions: not given
As to `CCCCn1c(-c2ccccc2)cnc1N`, the inhibition result was “inactive”.

For the molecule `CCCCCCCCCn1c(-c2ccccc2)cnc1N`, the inhibition entry was “inactive”.

As for `CCCCCCCC[n+]1c(-c2cccc3ccccc23)cn2cccnc21.[O-][Cl+3]([O-])([O-])[O-]`, the inhibition result was “Active”.

For `CCCCCCCCn1c(-c2ccc(F)cc2)cnc1N`, the inhibition result was “Active”.

As to `CCCCCCCCn1c(-c2ccc(Cl)cc2)cnc1N`, the inhibition result was “Active”.

Regarding `Nc1ncc(-c2ccc(Cl)cc2)n1C1CCCCCC1`, the inhibition result was “inactive”.

The next assay deals with Pseudomonas aeruginosa. The assay is described as follows: Antimicrobial activity against Pseudomonas aeruginosa assessed as inhibition of planktonic growth at 5 uM at 25 degC after 24 hrs. Type of assay: functional, organism-based.
Conditions: not given
Take `CCCCn1c(-c2ccccc2)cnc1N`: the inhibition result is “inactive”.

As to `CCCCCCCCCn1c(-c2ccccc2)cnc1N`, the inhibition result was “inactive”.

On to `CCCCCCCC[n+]1c(-c2cccc3ccccc23)cn2cccnc21.[O-][Cl+3]([O-])([O-])[O-]`, for which the inhibition result was “inactive”.

For the molecule `Nc1ncc(-c2ccc(Cl)cc2)n1C1CCCCC1`, the inhibition result is “inactive”.

Regarding `CCCCCCCCn1c(-c2ccc(F)cc2)cnc1N`, the inhibition result was “inactive”.

For `CCCCCCCCn1c(-c2ccc(Cl)cc2)cnc1N`, the inhibition result is “inactive”.

For the molecule `Nc1ncc(-c2ccc(Cl)cc2)n1C1CCCCCC1`, the inhibition entry was “inactive”.

For `CCCCCCCn1c(-c2ccccc2)cnc1N`, the inhibition entry is “inactive”.

The test system of the next assay is Salmonella typhimurium. The assay is described as follows: Antimicrobial activity against Salmonella Typhimurium ATCC 14028 assessed as inhibition of planktonic growth at 80 uM at 25 degC after 24 hrs. Type of assay: functional, organism-based. The conditions noted are these: Salmonella enterica subsp. enterica serovar Typhimurium.
For the molecule `Nc1nc(-c2ccc(Cl)cc2)c(-c2ccc(C(F)(F)F)cc2)[nH]1`, the inhibition result was “Active”.

Consider `Nc1ncc(-c2ccccc2)n1C1CCCCCCCCCCC1`, for which the inhibition result was “inactive”.

Consider `Nc1nc(-c2ccc(F)cc2)c(-c2ccc(F)cc2)[nH]1`, for which the inhibition result is “Active”.

Consider `CCn1c(-c2ccc(-c3ccccc3)cc2)cnc1N`, for which the inhibition result is “Active”.

Consider `Nc1ncc(-c2ccc(-c3ccccc3)cc2)n1C1CCCC1`, for which the inhibition entry is “Active”.

Regarding `Nc1nc(-c2ccccc2)c(-c2ccccc2)n1C1CCCCC1`, the inhibition result was “inactive”.

The next assay concerns Pseudomonas aeruginosa. Put plainly: Antimicrobial activity against Pseudomonas aeruginosa assessed as inhibition of planktonic growth at 20 uM at 25 degC after 24 hrs. Format: functional, organism-based.
Conditions: not given
For `CCCCCCCCCn1c(-c2ccccc2)cnc1N`, the inhibition entry is “Active”.

In the case of `CCCCCCCC[n+]1c(-c2cccc3ccccc23)cn2cccnc21.[O-][Cl+3]([O-])([O-])[O-]`, the inhibition result was “Active”.

As for `Nc1ncc(-c2ccc(Cl)cc2)n1C1CCCCC1`, the inhibition entry is “inactive”.

With `CCCCCCCCn1c(-c2ccc(F)cc2)cnc1N`, the inhibition entry was “Active”.

In the case of `CCCCCCCCn1c(-c2ccc(Cl)cc2)cnc1N`, the inhibition entry was “Active”.

For the molecule `Nc1ncc(-c2ccc(Cl)cc2)n1C1CCCCCC1`, the inhibition entry was “inactive”.

On to `CCCCCCCn1c(-c2ccccc2)cnc1N`, for which the inhibition entry is “inactive”.

On to `Nc1nc(-c2ccccc2)c(-c2ccccc2)n1C1CCCCC1`, for which the inhibition result is “inactive”.

The values are drawn from ChEMBL document CHEMBL1649413, “Structure-activity relationship of 4(5)-aryl-2-amino-1H-imidazoles, N1-substituted 2-aminoimidazoles and imidazo[1,2-a]pyrimidinium salts as inhibitors of biofilm formation by Salmonella typhimurium and Pseudomonas aeruginosa” (J Med Chem, 2011).
